Activity calls are given as the source filed them. The rule behind the calls is not given here.
What was measured:
[1] = target: Dipeptidyl peptidase 8 (Homo sapiens, UniProt Q6V1X1); assay: Inhibition of N-terminal GST/His-tagged human recombinant DPP-8 (1 to 898 residues) expressed in Sf9 insect cells using Ala-Pro-AMC dipeptide as substrate by fluorescence based assay
[2] = target: Dipeptidyl peptidase 9 (Homo sapiens, UniProt Q86TI2); assay: Inhibition of N-terminal GST-tagged human recombinant DPP-9 short form (1 to 863 residues) expressed in Sf9 cells using Ala-Pro-AMC dipeptide as substrate by fluorescence based assay
[3] = Antioxidant activity assessed as DPPH scavenging activity at 91.26 ug/ml incubated for 30 mins by absorbance based assay; format: functional; conditions: dose 91.26 µg/ml
[4] = Antioxidant activity assessed as H2O2 scavenging activity at 73.43 ug/ml incubated for 10 mins by absorbance based assay; format: functional; conditions: dose 73.43 µg/ml
[5] = Acute toxicity in rat assessed as animal survival at 2000 mg/kg, po measured after 30 mins to 4 hrs; format: organism-based; conditions: in vivo, time 0.5-4 hrs
[6] = Acute toxicity in rat assessed as change in animal skin and fur at 2000 mg/kg, po measured after 30 mins to 4 hrs; format: organism-based; conditions: in vivo, time 0.5-4 hrs
[7] = Acute toxicity in rat assessed as change in salivation at 2000 mg/kg, po measured after 30 mins to 4 hrs; format: organism-based; conditions: in vivo, time 0.5-4 hrs
[8] = Acute toxicity in rat assessed as diarrhoea at 2000 mg/kg, po measured after 30 mins to 4 hrs; format: organism-based; conditions: in vivo, time 0.5-4 hrs
[9] = Acute toxicity in rat assessed as change in sleep patterns at 2000 mg/kg, po measured after 30 mins to 4 hrs; format: organism-based; conditions: in vivo, time 0.5-4 hrs
[10] = Acute toxicity in po dosed rat measured after 30 mins to 4 hrs; format: organism-based; conditions: in vivo, time 0.5-4 hrs
[11] = Acute toxicity in rat assessed as change in animal skin at 300 to 1000 mg/kg, po measured after 6 hrs; format: organism-based; conditions: in vivo, dose 300-1000 mg/kg
[12] = Acute toxicity in rat assessed as change in animal fur at 300 to 1000 mg/kg, po measured after 6 hrs; format: organism-based; conditions: in vivo, dose 300-1000 mg/kg
[13] = Acute toxicity in rat assessed as change in animal eyes at 300 to 1000 mg/kg, po measured after 6 hrs; format: organism-based; conditions: in vivo, dose 300-1000 mg/kg
[14] = Acute toxicity in rat assessed as change in mucosal membranes at 300 to 1000 mg/kg, po measured after 6 hrs; format: organism-based; conditions: in vivo, dose 300-1000 mg/kg
[15] = Acute toxicity in rat assessed as change in salivation at 300 to 1000 mg/kg, po measured after 6 hrs; format: organism-based; conditions: in vivo, dose 300-1000 mg/kg
[16] = Acute toxicity in rat assessed as diarrhoea at 300 to 1000 mg/kg, po measured after 6 hrs; format: organism-based; conditions: in vivo, dose 300-1000 mg/kg
[17] = Acute toxicity in rat assessed as behavioural alterations at 300 to 1000 mg/kg, po measured after 6 hrs; format: organism-based; conditions: in vivo, dose 300-1000 mg/kg
[18] = test system: Rattus norvegicus; assay: Antidiabetic activity in high fat diet/STZ induced diabetic Wistar rat model assessed as increase in body weight at 3 to 30 mg/kg, IG pretreated with STZ for 21 days followed by compound treatment once daily for 21 days; format: functional, organism-based; conditions: dose 3-30 mg/kg, time 21.0 day
[19] = test system: Rattus norvegicus; assay: Antidiabetic activity in high fat diet/STZ induced diabetic Wistar rat model assessed as reduction in VLDL level at 3 to 30 mg/kg, IG pretreated with STZ for 21 days followed by compound treatment once daily for 21 days by spectrophotometric analysis; format: functional, organism-based; conditions: dose 3-30 mg/kg, time 21.0 day
[20] = test system: Rattus norvegicus; assay: Antidiabetic activity in high fat diet/STZ induced diabetic Wistar rat model assessed as reduction in total cholesterol level at 3 to 30 mg/kg, IG pretreated with STZ for 21 days followed by compound treatment once daily for 21 days by spectrophotometric analysis; format: functional, organism-based; conditions: dose 3-30 mg/kg, time 21.0 day
[21] = test system: Rattus norvegicus; assay: Antioxidant activity in IG dosed high fat diet/STZ induced diabetic Wistar rat model assessed as reversal of GSH reduction in liver pretreated with STZ for 21 days followed by compound treatment once daily for 21 days by spectrophotometric analysis; format: functional, organism-based; conditions: dose 3-30 mg/kg, time 21.0 day
[22] = test system: Rattus norvegicus; assay: Antioxidant activity in high fat diet/STZ induced diabetic Wistar rat model assessed as recovery of pancreatic epithelial cell damage and acini architecture at 10 mg/kg, IG pretreated with STZ for 21 days followed by compound treatment once daily for 21 days by H and E staining based microscopic analysis; format: functional, organism-based; conditions: time 21.0 day
[23] = test system: Rattus norvegicus; assay: Antioxidant activity in high fat diet/STZ induced diabetic Wistar rat model assessed as repair of pancreatic epithelial cells with reduced inflammation at 30 mg/kg, IG pretreated with STZ for 21 days followed by compound treatment once daily for 21 days by H and E staining based microscopic analysis; format: functional, organism-based; conditions: time 21.0 day
[24] = test system: Rattus norvegicus; assay: Antioxidant activity in high fat diet/STZ induced diabetic Wistar rat model assessed as repair of pancreatic epithelial cells with normal islets at 30 mg/kg, IG pretreated with STZ for 21 days followed by compound treatment once daily for 21 days by H and E staining based microscopic analysis; format: functional, organism-based; conditions: time 21.0 day
[25] = test system: Rattus norvegicus; assay: Antioxidant activity in high fat diet/STZ induced diabetic Wistar rat model assessed as healing of hepatocyte cytoplasm at 3 to 10 mg/kg, IG pretreated with STZ for 21 days followed by compound treatment once daily for 21 days by H and E staining based microscopic analysis; format: functional, organism-based; conditions: dose 3-10 mg/kg, time 21.0 day
[26] = test system: Rattus norvegicus; assay: Antioxidant activity in high fat diet/STZ induced diabetic Wistar rat model assessed as healing of hepatocyte nucleus at 3 mg/kg, IG pretreated with STZ for 21 days followed by compound treatment once daily for 21 days by H and E staining based microscopic analysis; format: functional, organism-based; conditions: time 21.0 day
[27] = test system: Rattus norvegicus; assay: Antioxidant activity in high fat diet/STZ induced diabetic Wistar rat model assessed as appearance of dilated central veins in hepatocytes at 30 mg/kg, IG pretreated with STZ for 21 days followed by compound treatment once daily for 21 days by H and E staining based microscopic analysis; format: functional, organism-based; conditions: time 21.0 day
[28] = test system: Rattus norvegicus; assay: Antioxidant activity in high fat diet/STZ induced diabetic Wistar rat model assessed as absence of feathery hepatocyte deterioration at 30 mg/kg, IG pretreated with STZ for 21 days followed by compound treatment once daily for 21 days by H and E staining based microscopic analysis; format: functional, organism-based; conditions: time 21.0 day
[29] = test system: Rattus norvegicus; assay: Antioxidant activity in high fat diet/STZ induced diabetic Wistar rat model assessed as reduction in mesangial cellularity and matrix at 3 mg/kg, IG pretreated with STZ for 21 days followed by compound treatment once daily for 21 days by H and E staining based microscopic analysis; format: functional, organism-based; conditions: time 21.0 day
[30] = test system: Rattus norvegicus; assay: Antioxidant activity in high fat diet/STZ induced diabetic Wistar rat model assessed as reduction in glomeruli infiltration in stroma at 3 to 30 mg/kg, IG pretreated with STZ for 21 days followed by compound treatment once daily for 21 days by H and E staining based microscopic analysis; format: functional, organism-based; conditions: dose 3-30 mg/kg, time 21.0 day
[31] = test system: Rattus norvegicus; assay: (§1) Antioxidant activity in high fat diet/STZ induced diabetic Wistar rat model assessed as reduction in hazy swelling of columnar cells in tubules at 3 mg/kg, IG pretreated with STZ for 21 days followed by compound treatment once daily for 21 days by H and E staining based microscopic analysis; format: functional, organism-based; conditions: time 21.0 day
[32] = test system: Rattus norvegicus; assay: as §1, with “appearance of sufficient cloudy” for “reduction in hazy”, “10” for “3”; format: functional, organism-based; conditions: time 21.0 day
[33] = test system: Rattus norvegicus; assay: Antioxidant activity in high fat diet/STZ induced diabetic Wistar rat model assessed as appearance of typical columnar cells in tubules at 30 mg/kg, IG pretreated with STZ for 21 days followed by compound treatment once daily for 21 days by H and E staining based microscopic analysis; format: functional, organism-based; conditions: time 21.0 day

Dipeptidyl peptidase 8, sequence (Q6V1X1 whole entry, the tested form may be a part): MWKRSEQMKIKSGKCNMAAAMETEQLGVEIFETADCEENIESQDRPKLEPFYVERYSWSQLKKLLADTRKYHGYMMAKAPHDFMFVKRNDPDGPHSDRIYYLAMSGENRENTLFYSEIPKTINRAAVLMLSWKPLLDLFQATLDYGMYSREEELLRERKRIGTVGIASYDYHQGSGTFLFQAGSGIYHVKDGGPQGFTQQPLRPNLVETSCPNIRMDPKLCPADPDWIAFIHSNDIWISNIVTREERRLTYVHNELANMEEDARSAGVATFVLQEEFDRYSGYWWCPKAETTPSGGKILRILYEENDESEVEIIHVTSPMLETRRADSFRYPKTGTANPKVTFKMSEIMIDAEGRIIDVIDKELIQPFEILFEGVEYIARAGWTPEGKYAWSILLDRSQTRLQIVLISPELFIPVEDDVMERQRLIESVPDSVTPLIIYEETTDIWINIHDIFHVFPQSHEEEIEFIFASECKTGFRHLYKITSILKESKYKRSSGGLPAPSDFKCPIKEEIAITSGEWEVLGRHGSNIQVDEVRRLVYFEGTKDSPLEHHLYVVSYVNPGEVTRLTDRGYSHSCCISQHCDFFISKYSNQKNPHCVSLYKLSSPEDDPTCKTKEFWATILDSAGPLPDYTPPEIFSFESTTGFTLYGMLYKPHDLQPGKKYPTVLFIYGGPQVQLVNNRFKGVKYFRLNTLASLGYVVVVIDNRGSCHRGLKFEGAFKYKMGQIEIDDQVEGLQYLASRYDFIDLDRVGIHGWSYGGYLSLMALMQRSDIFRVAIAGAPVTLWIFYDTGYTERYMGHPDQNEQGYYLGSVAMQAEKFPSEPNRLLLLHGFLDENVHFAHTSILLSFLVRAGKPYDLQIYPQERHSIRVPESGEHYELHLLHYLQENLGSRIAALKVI
Dipeptidyl peptidase 9, sequence (Q86TI2 whole entry, the tested form may be a part): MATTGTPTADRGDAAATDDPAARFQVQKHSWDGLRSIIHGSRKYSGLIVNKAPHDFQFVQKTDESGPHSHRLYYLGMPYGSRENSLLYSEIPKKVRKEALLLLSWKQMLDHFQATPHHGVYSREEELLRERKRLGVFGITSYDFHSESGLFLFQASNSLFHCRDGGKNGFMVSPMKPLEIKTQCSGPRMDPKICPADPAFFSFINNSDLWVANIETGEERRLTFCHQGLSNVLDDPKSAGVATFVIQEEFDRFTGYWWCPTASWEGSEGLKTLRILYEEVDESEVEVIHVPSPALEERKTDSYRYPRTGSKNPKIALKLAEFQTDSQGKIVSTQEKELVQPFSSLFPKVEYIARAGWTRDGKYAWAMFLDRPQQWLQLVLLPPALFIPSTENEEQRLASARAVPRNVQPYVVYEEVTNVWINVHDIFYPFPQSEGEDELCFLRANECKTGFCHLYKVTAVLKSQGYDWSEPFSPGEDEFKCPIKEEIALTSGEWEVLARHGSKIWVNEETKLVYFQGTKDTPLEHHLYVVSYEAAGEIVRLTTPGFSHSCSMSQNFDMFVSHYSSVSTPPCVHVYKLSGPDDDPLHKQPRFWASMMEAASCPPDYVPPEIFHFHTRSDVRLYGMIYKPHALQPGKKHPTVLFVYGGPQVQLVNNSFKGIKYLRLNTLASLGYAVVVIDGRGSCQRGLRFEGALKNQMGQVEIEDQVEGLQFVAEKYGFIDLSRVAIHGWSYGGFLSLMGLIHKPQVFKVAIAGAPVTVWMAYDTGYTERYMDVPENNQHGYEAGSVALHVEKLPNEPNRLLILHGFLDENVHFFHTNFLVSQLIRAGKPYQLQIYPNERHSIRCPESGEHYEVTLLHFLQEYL

For `Nc1nc(NC2=NC(c3ccccc3)=CC(c3cccc([N+](=O)[O-])c3)O2)nc(N2CCOCC2)n1` (stereo not drawn), which IC50 [1] is on record?
The IC50 was greater than 400 nM.

What about the IC50 [2] of the same molecule?
The IC50 was greater than 400 nM.

What about the Activity [3] of the same molecule?
The Activity was “Active”.

What about the Activity [4] of the same molecule?
The Activity was “Active”.

What about the Activity [5] of the same molecule?
Its Activity is “Non-Toxic”.

And the Activity [6]?
Its Activity is “Non-Toxic”.

What about the Activity [7] of the same molecule?
The Activity was “Non-Toxic”.

What about the Activity [8] of the same molecule?
Its Activity is “Non-Toxic”.

What about the Activity [9] of the same molecule?
The Activity was “Non-Toxic”.

And the LD50 [10]?
The LD50 was 2000 mg/kg.

And the Activity [11]?
The Activity was “Non-Toxic”.

What about the Activity [12] of the same molecule?
The Activity was “Non-Toxic”.

And the Activity [13]?
The Activity was “Non-Toxic”.

What about the Activity [14] of the same molecule?
Its Activity is “Non-Toxic”.

And the Activity [15]?
Its Activity is “Non-Toxic”.

And the Activity [16]?
The Activity was “Non-Toxic”.

What about the Activity [17] of the same molecule?
Its Activity is “Non-Toxic”.

What about the Activity [18] of the same molecule?
Its Activity is “Active”.

And the Activity [19]?
Its Activity is “Active”.

What about the Activity [20] of the same molecule?
Its Activity is “Active”.

What about the Activity [21] of the same molecule?
Its Activity is “Dose-Dependent Effect”.

What about the Activity [22] of the same molecule?
Its Activity is “Active”.

What about the Activity [23] of the same molecule?
Its Activity is “Active”.

And the Activity [24]?
Its Activity is “Active”.

What about the Activity [25] of the same molecule?
The Activity was “Active”.

And the Activity [26]?
Its Activity is “Active”.

And the Activity [27]?
Its Activity is “Active”.

What about the Activity [28] of the same molecule?
Its Activity is “Active”.

And the Activity [29]?
The Activity was “inactive”.

And the Activity [30]?
Its Activity is “Active”.

And the Activity [31]?
Its Activity is “inactive”.

What about the Activity [32] of the same molecule?
The Activity was “Active”.

What about the Activity [33] of the same molecule?
Its Activity is “Active”.

— ChEMBL document CHEMBL5329166, “Discovery of imeglimin-inspired novel 1,3,5-triazine derivatives as antidiabetic agents in streptozotocin-induced diabetes in Wistar rats via inhibition of DPP-4” (RSC Med Chem, 2023)
